Assay in all cases: inhibition of tumour cell growth, NCI panel, 48 h
For experiment [1], the system named is SK-MEL-5.
In experiment [2] the test system is T47D.
Experiment [3] relates to TK-10.
The test system of experiment [4] is HCT-116.
For experiment [5], the system named is RPMI-8226.
In experiment [6] the test system is SK-MEL-2.
Experiment [7] relates to HT-29.
In experiment [8] the test system is HCT-15.
Experiment [9] concerns NCI-H460.
In experiment [10] the test system is HOP-62.
In experiment [11] the test system is MDA-MB-435.
In experiment [12] the test system is NCI-H522.
For experiment [13], the system named is LOX IMVI.
Experiment [14] concerns SNB-19.
Experiment [15] deals with NCI/ADR-RES.
For experiment [16], the system named is HCC 2998.
Experiment [17] concerns SF-268.
The test system of experiment [18] is U-251.
Experiment [19] relates to SK-OV-3.
The subject of experiment [20] is UO-31.

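Values below derive from 48-hour exposures of cells grown in 96-well plates, with endpoints linearly interpolated between the two concentrations bracketing the appropriate inhibition level. GI50 = concentration required for 50% inhibition of growth.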 Activity calls are given as the source filed them. No stated cut-off is given here; in the data, active = GI50 up to about 1.1 µM and inactive = higher. Some results are limits rather than exact numbers.

Regarding `CC(C)(C)OC(=O)NC(Cc1ccc(OC(C)(C)C)cc1)C(=O)N[C@H]1CC[C@H](C(=O)O)C1` (stereo partly drawn), the GI50 is > 100 µM (inactive) in experiment [1]; > 10 µM (inactive) in experiment [2]; > 100 µM (inactive) in experiment [3]; > 100 µM (inactive) in experiment [4]; > 100 µM (inactive) in experiment [5]; > 100 µM (inactive) in experiment [6]. Moreover, the GI50 was > 100 µM (inactive) in experiment [7]; greater than 100 µM in experiment [8]; > 100 µM (inactive) in experiment [9]; > 100 µM (inactive) in experiment [10]; > 100 µM (inactive) in experiment [11]; > 100 µM (inactive) in experiment [12]. The GI50 in experiment [13], in [14], in experiment [15], in [16], in experiment [17] and in experiment [18] was > 100 µM (inactive) in each case. Further, the GI50 in [19] is > 100 µM (inactive).

For `COc1cc(C2c3cc4c(cc3OC(N3CCOCC3)C2C)OCO4)cc(OC)c1O` (stereo not drawn), the GI50 was 3.18 µM (inactive) in experiment [1]; 14.8 µM (inactive) in experiment [20]; 9.04 µM (inactive) in experiment [2]; 18.7 µM (inactive) in experiment [3]; 4.13 µM (inactive) in [4]; 8.2 µM (inactive) in experiment [5]. In addition, the GI50 in experiment [6] was 6.9 µM (inactive); in [7], 4.04 µM (inactive); in experiment [8], 2.87 µM; in [9], 5.09 µM (inactive); in experiment [10] it was 9.57 µM (inactive); in [11] it was 2.1 µM (inactive). The GI50 in [12] was 2.8 µM (inactive); in [13] it was 6.7 µM (inactive); in experiment [14], 22.3 µM (inactive); in experiment [15], 3.35 µM (inactive); in experiment [16], 10.5 µM (inactive); in experiment [17], 17.7 µM (inactive). Besides, the GI50 in [18] is 7.52 µM (inactive); in experiment [19], 5.69 µM (inactive).

For `CCSC1=CC(=O)c2nc3ccccc3c3ccnc1c23`, the GI50 in experiment [20] is 5.22 µM (inactive); in experiment [2], 11.2 µM (inactive); in experiment [3] it was 12.1 µM (inactive); in experiment [4] it was 2.72 µM (inactive); in experiment [5] it was 2.33 µM (inactive); in experiment [6], 1.91 µM (inactive). In addition, the GI50 is 3.82 µM (inactive) in experiment [7]; 2.31 µM in experiment [8]; 6.24 µM (inactive) in experiment [9]; 18.4 µM (inactive) in experiment [10]; 1.77 µM (inactive) in [11]; 1.45 µM (inactive) in experiment [12]. In addition, the GI50 is 4.51 µM (inactive) in [13]; 42.2 µM (inactive) in [14]; 2.62 µM (inactive) in experiment [15]; 8.89 µM (inactive) in [16]; 2.49 µM (inactive) in experiment [17]; 3.33 µM (inactive) in [18]. In experiment [19], the GI50 is 49 µM (inactive).

`Cc1ccc(C)c(NC(=O)/C(=N\N)C(c2cnc3ccc([N+](=O)[O-])cc3n2)[N+](=O)[O-])c1` (stereo not drawn): the GI50 in experiment [1] is 41.6 µM (inactive); in experiment [20] it was 23.6 µM (inactive); in experiment [2], 87.7 µM (inactive); in experiment [3], > 100 µM (inactive); in [4], > 100 µM (inactive); in [5] it was 45.9 µM (inactive). Besides, the GI50 in experiment [6] was 71.6 µM (inactive); in experiment [7] it was 65.8 µM (inactive); in [8], greater than 100 µM; in experiment [9], 70.3 µM (inactive); in experiment [10], 40 µM (inactive); in experiment [11] it was 62.5 µM (inactive). Moreover, the GI50 was 19.7 µM (inactive) in experiment [12]; 56.4 µM (inactive) in experiment [13]; 32.2 µM (inactive) in experiment [15]; 69.8 µM (inactive) in experiment [16]; 93.5 µM (inactive) in experiment [17]; > 100 µM (inactive) in experiment [18]. Moreover, the GI50 in [19] was 67.5 µM (inactive).

In the case of `N#Cc1c(C#N)c(-c2cccc([N+](=O)[O-])c2)n(-c2ccccc2)c1N`, the GI50 in experiment [1], in experiment [20], in experiment [2], in experiment [3], in experiment [4] and in experiment [5] was > 100 µM (inactive) each time. Besides, the GI50 in experiment [6] is > 100 µM (inactive); in experiment [7], > 100 µM (inactive); in [8] it was greater than 100 µM; in [10], 49.4 µM (inactive); in [11] it was > 100 µM (inactive); in [12], > 100 µM (inactive). The GI50 in experiment [13] is > 100 µM (inactive); in experiment [14], 46.8 µM (inactive); in [15], > 100 µM (inactive); in experiment [16] it was > 100 µM (inactive); in experiment [17], 88.7 µM (inactive); in [18] it was 44.8 µM (inactive). The GI50 in [19] was 96.2 µM (inactive).

As to `CCN1CCN(c2nc3ccc([N+](=O)[O-])cc3nc2C(=O)c2ccccc2)CC1`, the GI50 was 12.6 µM (inactive) in experiment [20]; 26.7 µM (inactive) in experiment [2]; 19.9 µM (inactive) in [3]; 17.1 µM (inactive) in experiment [4]; 12.8 µM (inactive) in experiment [5]; 15.8 µM (inactive) in experiment [6]. For the same compound, the GI50 in [8] is 12 µM; in experiment [9], 21.8 µM (inactive); in experiment [10], 20.1 µM (inactive); in [11] it was 16.3 µM (inactive); in experiment [12] it was 2.67 µM (inactive); in experiment [13] it was 4.98 µM (inactive). Also, the GI50 in experiment [14] is 26 µM (inactive); in experiment [15], 14.8 µM (inactive); in experiment [16], 15.3 µM (inactive); in [17], 19.1 µM (inactive); in experiment [18], 17.3 µM (inactive); in [19] it was 14.8 µM (inactive).

Take `CC(=O)O[C@H]1C[C@H]2[C@@H]([C@H](OC(C)=O)C[C@@H]3CC4(CC[C@@]32C)OOC2(CCCCC2)OO4)[C@@H]2CC[C@H]([C@H](C)CCC(N)=O)[C@@]12C`: the GI50 was 2.15 µM (inactive) in experiment [1]; 1.63 µM (inactive) in experiment [2]; 2.6 µM (inactive) in experiment [3]; 3.13 µM (inactive) in [4]; 0.726 µM (active) in experiment [5]; 1.78 µM (inactive) in experiment [6]. The GI50 in experiment [7] was 3.4 µM (inactive); in [8], 2 µM; in experiment [9], 1.93 µM (inactive); in [10], 0.817 µM (active); in experiment [11], 1.65 µM (inactive); in experiment [12] it was 0.55 µM (active). Besides, the GI50 was 1 µM (active) in experiment [13]; 5.85 µM (inactive) in experiment [14]; 2.2 µM (inactive) in [15]; 3.63 µM (inactive) in experiment [16]; 1.66 µM (inactive) in experiment [17]; 1.51 µM (inactive) in experiment [18]. Further, the GI50 in [19] is 11.6 µM (inactive).

These data come from ChEMBL document CHEMBL1201862, “PubChem BioAssay data set” (2004).
